From patent US20120022164A1, “EXTERNAL PREPARATION COMPRISING PROSTAGLANDIN DERIVATIVE” (TAISHO PHARMACEUTICAL CO., LTD., priority 2006, published 2012)
Where two headings read alike, the source gives them in different places. Values belong to the compound of their own block, whether it stands above or below them.

Assays:
[1] = cited from earlier work; for Solubility in water: cyclodextrins, water at 25° C.
[2] = Solubility of compound of formula II in cyclodextrin aqueous solutions (Test Example 7); format: physicochemical; details: for solubility at 24 h: 25 °C, aqueous with cosolvent or surfactant or cyclodextrin, thermodynamic from solid
Protocol: A complex containing the compound of formula II and the cyclodextrin can be obtained by grinding a block prepared by freeze-drying a solution which is obtained by dissolving the both into water. In order to examine the minimum content (formulation amount) of cyclodextrin required to obtain the complex, solubility of the compound of formula II in cyclodextrin aqueous solutions which have different concentrations of and different types of cyclodextrin was measured. That is, cyclodextrin aqueous solutions of various concentrations were prepared by dissolving α-cyclodextrin, β-cyclodextrin, γ-cyclodextrin or hydroxypropyl-β-cyclodextrin into water. After each solution was poured into a test tube, the compound of formula II was added excessively. The test tube was shaken in a water bath at 25° C. for 24 hours, and a concentration of the dissolved compound of formula II was quantified with high-performance liquid chromatography (Equipment: LC10VP series manufactured by SHIMADZU CORPORATION, Column: Develosil ODS-HG-5 manufactured by Nomura Chemical Co., Ltd., Inner diameter: 4.6 mm, Length: 15 cm, Column temperature: 40° C., Mobile phase: mixed solution of water/acetonitrile/phosphoric acid (550:450:1), Flow rate: 1 mL/min, Detection wavelength: 200 nm). With this, solubility of the compound of formula II and molar ratio of the compound of formula II and each type of cyclodextrin were calculated.
Note that, for calculation of the molar ratios, molecular weights of the compound of formula II, α-cyclodextrin, β-cyclodextrin, γ-cyclodextrin and hydroxypropyl-β-cyclodextrin were set to 420.99, 972.84, 1134.98, 1297.12 and 1506.69, respectively.

Solubility in water = format: physicochemical; details: water at 25° C.

Compound: OC[C@H]1O[C@@H]2O[C@H]3[C@H](O)[C@@H](O)[C@@H](O[C@H]4[C@H](O)[C@@H](O)[C@@H](O[C@H]5[C@H](O)[C@@H](O)[C@@H](O[C@H]6[C@H](O)[C@@H](O)[C@@H](O[C@H]7[C@H](O)[C@@H](O)[C@@H](O[C@H]1[C@H](O)[C@H]2O)O[C@@H]7CO)O[C@@H]6CO)O[C@@H]5CO)O[C@@H]4CO)O[C@@H]3CO [α-cyclodextrin]
- Solubility in water [1]: approximately 14%
- Solubility of α-cyclodextrin in water ([1]; water): approximately 14 % by mass

- Solubility of compound of formula II (mg/mL) ([2]; hydroxypropyl-β-cyclodextrin 0.25% by mass in water, 25° C., * completely dissolved, actual solubility assumed much higher): > 0.10* mg/mL
- Solubility of compound of formula II (mg/mL) ([2]; hydroxypropyl-β-cyclodextrin 5% by mass in water, 25° C., * completely dissolved, actual solubility assumed much higher): > 2.0* mg/mL
- Solubility of compound of formula II (mg/mL) ([2]; hydroxypropyl-β-cyclodextrin 10% by mass in water, 25° C., * completely dissolved, actual solubility assumed much higher): > 3.0* mg/mL
- solubility at 24 h ([2]; α-cyclodextrin aqueous solution, α-cyclodextrin 1% by mass in water, 25° C., 24 hours, read-out: Solubility of compound of formula II): 0.11 mg/mL
- solubility at 24 h ([2]; α-cyclodextrin aqueous solution, α-cyclodextrin 2% by mass in water, 25° C., 24 hours, read-out: Solubility of compound of formula II): 0.17 mg/mL
- solubility at 24 h ([2]; α-cyclodextrin aqueous solution, α-cyclodextrin 5% by mass in water, 25° C., 24 hours, read-out: Solubility of compound of formula II): 0.5 mg/mL
- solubility at 24 h ([2]; α-cyclodextrin aqueous solution, α-cyclodextrin 10% by mass in water, 25° C., 24 hours, read-out: Solubility of compound of formula II): 1.22 mg/mL
- solubility at 24 h ([2]; α-cyclodextrin aqueous solution, α-cyclodextrin 12% by mass in aqueous solution, 25° C. (FIG. 1), read-out: Solubility of the compound of formula II): 1.52 mg/mL
- solubility at 24 h ([2]; β-cyclodextrin aqueous solution, β-cyclodextrin 1% by mass in water, 25° C., 24 hours, read-out: Solubility of compound of formula II): < 0.1 mg/mL
- solubility at 24 h ([2]; β-cyclodextrin aqueous solution, β-cyclodextrin 2% by mass in water, 25° C., * completely dissolved, actual solubility assumed much higher, read-out: Solubility of compound of formula II): > 0.2 mg/mL
- Compound of formula II: cyclodextrin (molar ratio) ([2]; γ-cyclodextrin 5% by mass): 0.1396
- solubility at 24 h ([2]; γ-cyclodextrin aqueous solution, γ-cyclodextrin 0.1% by mass in water, 25° C., * completely dissolved, actual solubility assumed much higher, read-out: Solubility of compound of formula II): > 0.05 mg/mL
- solubility at 24 h ([2]; γ-cyclodextrin aqueous solution, γ-cyclodextrin 1% by mass in water, 25° C., 24 hours, read-out: Solubility of compound of formula II): 0.17 mg/mL
- solubility at 24 h ([2]; γ-cyclodextrin aqueous solution, γ-cyclodextrin 5% by mass in water, 25° C., 24 hours, read-out: Solubility of compound of formula II): 0.12 mg/mL
- solubility (Solubility in water): ~0.06 mg/mL
Compound: O=C(O)CSCCCC[C@@H]1[C@@H](C#C[C@@H](O)C2CCCCC2)[C@H](O)C[C@H]1Cl [compound of formula II]

Compound: hydroxypropyl-β-cyclodextrin
- Solubility in water [1]: approximately 22%

Compound: OC[C@H]1O[C@@H]2O[C@H]3[C@H](O)[C@@H](O)[C@@H](O[C@H]4[C@H](O)[C@@H](O)[C@@H](O[C@H]5[C@H](O)[C@@H](O)[C@@H](O[C@H]6[C@H](O)[C@@H](O)[C@@H](O[C@H]7[C@H](O)[C@@H](O)[C@@H](O[C@H]8[C@H](O)[C@@H](O)[C@@H](O[C@H]1[C@H](O)[C@H]2O)O[C@@H]8CO)O[C@@H]7CO)O[C@@H]6CO)O[C@@H]5CO)O[C@@H]4CO)O[C@@H]3CO [β-cyclodextrin]
- Solubility in water [1]: approximately 2%
